In assay [1] the target is Nuclear receptor subfamily 4immunitygroup A member 1 (Homo sapiens) (UniProt P22736). Nature of the assay: Selectivity interaction (Reporter gene assay) EUB0001142a NR4A1. Also noted: recommended concentration 1 uM. In general terms: In a reporter assay the amount or activity of a reporter protein is the signal.
The target in assay [2] is T1, Hepatocyte nuclear factor 4-alpha (Homo sapiens) (UniProt P41235).
T1 sequence (whole entry): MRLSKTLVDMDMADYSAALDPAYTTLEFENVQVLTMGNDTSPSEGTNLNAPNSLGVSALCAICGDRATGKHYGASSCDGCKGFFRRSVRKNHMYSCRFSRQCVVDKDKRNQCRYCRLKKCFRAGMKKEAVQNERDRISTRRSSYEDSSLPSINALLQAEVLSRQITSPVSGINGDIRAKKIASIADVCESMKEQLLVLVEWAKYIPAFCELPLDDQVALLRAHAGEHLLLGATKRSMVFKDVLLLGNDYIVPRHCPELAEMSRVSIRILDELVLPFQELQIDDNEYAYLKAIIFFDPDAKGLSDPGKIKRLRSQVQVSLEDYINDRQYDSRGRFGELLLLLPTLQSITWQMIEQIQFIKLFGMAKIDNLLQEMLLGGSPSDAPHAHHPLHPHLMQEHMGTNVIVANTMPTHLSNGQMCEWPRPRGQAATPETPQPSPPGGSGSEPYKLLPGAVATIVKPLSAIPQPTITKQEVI
Nature of the assay: Selectivity interaction (Reporter gene assay) EUB0001142a HNF4A. More on the design: recommended concentration 1 uM.

The target in assay [3] is Nuclear receptor subfamily 2 group E member 1 (Homo sapiens) (UniProt Q9Y466). Nature of the assay: Selectivity interaction (Reporter gene assay) EUB0001142a NR2E1. Also noted: recommended concentration 1 uM.
Nuclear receptor subfamily 2 group E member 1 (Homo sapiens), sequence (Q9Y466 whole entry): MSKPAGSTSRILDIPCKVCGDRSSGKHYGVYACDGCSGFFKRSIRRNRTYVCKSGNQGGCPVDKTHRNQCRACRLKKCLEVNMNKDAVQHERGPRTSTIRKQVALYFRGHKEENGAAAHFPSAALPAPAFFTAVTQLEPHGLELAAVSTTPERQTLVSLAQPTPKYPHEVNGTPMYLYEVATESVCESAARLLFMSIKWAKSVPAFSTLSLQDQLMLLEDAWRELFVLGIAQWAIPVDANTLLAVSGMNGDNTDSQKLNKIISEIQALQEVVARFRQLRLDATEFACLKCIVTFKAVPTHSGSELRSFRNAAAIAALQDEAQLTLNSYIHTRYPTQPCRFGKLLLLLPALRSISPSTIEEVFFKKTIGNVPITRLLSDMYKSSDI
Assay [4] addresses T2, Alpha trans-inducing protein (Human alphaherpesvirus 1) (UniProt A0A5J6DW59). Nature of the assay: Selectivity interaction (Reporter gene assay) EUB0001142a UL48. More on the design: recommended concentration 1 uM.
Assay [5] concerns the target Steroidogenic factor 1 (Homo sapiens) (UniProt Q13285). Description: Selectivity interaction (Reporter gene assay) EUB0001142a NR5A1. More on the design: recommended concentration 1 uM.
The target of assay [6] is T3, Nuclear receptor subfamily 2 group C member 1 (Homo sapiens) (UniProt P13056).
T3 sequence (whole entry): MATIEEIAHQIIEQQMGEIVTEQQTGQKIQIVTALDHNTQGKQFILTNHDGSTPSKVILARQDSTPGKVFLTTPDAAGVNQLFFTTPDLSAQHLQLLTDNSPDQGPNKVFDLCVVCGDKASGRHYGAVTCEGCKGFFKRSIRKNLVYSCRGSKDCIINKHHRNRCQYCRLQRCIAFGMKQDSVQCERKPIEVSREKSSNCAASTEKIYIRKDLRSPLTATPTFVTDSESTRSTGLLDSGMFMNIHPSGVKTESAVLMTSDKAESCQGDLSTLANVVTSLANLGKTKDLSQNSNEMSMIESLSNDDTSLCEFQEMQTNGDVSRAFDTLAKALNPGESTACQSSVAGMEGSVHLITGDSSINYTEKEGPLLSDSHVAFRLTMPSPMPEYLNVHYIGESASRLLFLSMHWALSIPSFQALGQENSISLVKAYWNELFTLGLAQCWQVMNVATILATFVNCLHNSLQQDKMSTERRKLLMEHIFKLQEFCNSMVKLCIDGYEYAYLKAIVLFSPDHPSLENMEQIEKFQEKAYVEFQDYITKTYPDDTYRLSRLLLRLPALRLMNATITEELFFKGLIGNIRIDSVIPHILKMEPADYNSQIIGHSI
Description: Selectivity interaction (Reporter gene assay) EUB0001142a NR2C1. Also noted: recommended concentration 1 uM.

Assay [7] deals with Nuclear receptor subfamily 4immunitygroup A member 1 (Homo sapiens) (UniProt P22736). Nature of the assay: Selectivity interaction (Reporter gene assay) EUB0001143a NR4A1. Also noted: recommended concentration 1 uM.
For assay [8], the target named is T3, Nuclear receptor subfamily 2 group C member 1 (Homo sapiens). Description: Selectivity interaction (Reporter gene assay) EUB0001143a NR2C1. Also noted: recommended concentration 1 uM.
The target of assay [9] is T1, Hepatocyte nuclear factor 4-alpha (Homo sapiens). Nature of the assay: Selectivity interaction (Reporter gene assay) EUB0001143a HNF4A. More on the design: recommended concentration 1 uM.
For assay [10], the target named is T2, Alpha trans-inducing protein (Human alphaherpesvirus 1). Description: Selectivity interaction (Reporter gene assay) EUB0001143a UL48. Also noted: recommended concentration 1 uM.
Assay [11] concerns the target Nuclear receptor subfamily 2 group E member 1 (Homo sapiens) (UniProt Q9Y466). Description: Selectivity interaction (Reporter gene assay) EUB0001143a NR2E1. Also noted: recommended concentration 1 uM.
The target in assay [12] is Steroidogenic factor 1 (Homo sapiens) (UniProt Q13285). Description: Selectivity interaction (Reporter gene assay) EUB0001143a NR5A1. Also noted: recommended concentration 1 uM.
Steroidogenic factor 1 (Homo sapiens), sequence (Q13285 whole entry): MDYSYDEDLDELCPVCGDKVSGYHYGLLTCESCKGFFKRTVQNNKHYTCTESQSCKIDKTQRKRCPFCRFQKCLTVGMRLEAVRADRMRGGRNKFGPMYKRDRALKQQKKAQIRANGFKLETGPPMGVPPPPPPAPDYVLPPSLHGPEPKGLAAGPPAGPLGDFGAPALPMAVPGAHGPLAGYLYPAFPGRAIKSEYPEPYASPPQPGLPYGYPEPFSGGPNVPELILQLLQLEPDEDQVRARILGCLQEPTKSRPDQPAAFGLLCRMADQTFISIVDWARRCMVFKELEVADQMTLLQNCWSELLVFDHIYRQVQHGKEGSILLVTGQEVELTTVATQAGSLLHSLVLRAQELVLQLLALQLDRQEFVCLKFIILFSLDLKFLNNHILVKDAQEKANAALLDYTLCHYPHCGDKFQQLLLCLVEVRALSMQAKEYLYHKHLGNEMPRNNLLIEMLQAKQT
Assay [13] deals with T4, Retinoic acid receptor RXR-alpha (Homo sapiens) (UniProt P19793).
T4 sequence (whole entry): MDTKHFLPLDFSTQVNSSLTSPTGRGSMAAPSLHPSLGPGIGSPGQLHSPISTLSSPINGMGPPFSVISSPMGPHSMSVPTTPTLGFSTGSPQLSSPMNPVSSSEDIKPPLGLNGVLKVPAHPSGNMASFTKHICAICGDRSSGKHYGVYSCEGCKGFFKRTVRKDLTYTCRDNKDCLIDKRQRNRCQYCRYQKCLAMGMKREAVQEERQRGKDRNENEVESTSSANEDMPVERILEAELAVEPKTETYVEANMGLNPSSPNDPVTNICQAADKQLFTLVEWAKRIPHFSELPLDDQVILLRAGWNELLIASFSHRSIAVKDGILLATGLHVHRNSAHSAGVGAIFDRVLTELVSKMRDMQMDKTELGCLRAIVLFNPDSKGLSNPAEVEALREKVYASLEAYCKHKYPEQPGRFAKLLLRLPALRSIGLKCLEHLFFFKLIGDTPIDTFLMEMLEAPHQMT
Description: Selectivity interaction (Reporter gene assay) EUB0001143a RXRA. More on the design: recommended concentration 1 uM. To be noted: reference bexarotene 1 uM, Selectivity number of off-targets 0.0, Selectivity number of targets 1.0, Source Knowledge inhouse.

Assay [14] addresses Steroidogenic factor 1 (Homo sapiens) (UniProt Q13285). Description: Selectivity interaction (Reporter gene assay) EUB0001147a NR5A1. Also noted: recommended concentration 1 uM.
In assay [15] the target is T1, Hepatocyte nuclear factor 4-alpha (Homo sapiens). Nature of the assay: Selectivity interaction (Reporter gene assay) EUB0001147a HNF4A. Also noted: recommended concentration 1 uM.
Assay [16] deals with T4, Retinoic acid receptor RXR-alpha (Homo sapiens). Nature of the assay: Selectivity interaction (Reporter gene assay) EUB0001147a RXRA. More on the design: recommended concentration 1 uM. As to conditions: reference bexarotene 1 uM, Selectivity number of off-targets 0.0, Selectivity number of targets 1.0, Source Knowledge inhouse.
Assay [17] concerns the target T3, Nuclear receptor subfamily 2 group C member 1 (Homo sapiens). Nature of the assay: Selectivity interaction (Reporter gene assay) EUB0001147a NR2C1. Also noted: recommended concentration 1 uM.
Assay [18] has as its target Nuclear receptor subfamily 4immunitygroup A member 1 (Homo sapiens) (UniProt P22736). Description: Selectivity interaction (Reporter gene assay) EUB0001147a NR4A1. More on the design: recommended concentration 1 uM.
In assay [19] the target is T2, Alpha trans-inducing protein (Human alphaherpesvirus 1). Description: Selectivity interaction (Reporter gene assay) EUB0001147a UL48. More on the design: recommended concentration 1 uM.
The target of assay [20] is Nuclear receptor subfamily 2 group E member 1 (Homo sapiens) (UniProt Q9Y466). Nature of the assay: Selectivity interaction (Reporter gene assay) EUB0001147a NR2E1. Also noted: recommended concentration 1 uM.
The target in assay [21] is T4, Retinoic acid receptor RXR-alpha (Homo sapiens). Description: Selectivity interaction (Reporter gene assay) EUB0001150a RXRA. Also noted: recommended concentration 10 uM. As to conditions: reference bexarotene 1 uM, Selectivity number of off-targets 0.0, Selectivity number of targets 1.0, Source Knowledge inhouse.
The target of assay [22] is Nuclear receptor subfamily 4immunitygroup A member 1 (Homo sapiens) (UniProt P22736). Nature of the assay: Selectivity interaction (Reporter gene assay) EUB0001150a NR4A1. More on the design: recommended concentration 10 uM.
Assay [23] addresses T3, Nuclear receptor subfamily 2 group C member 1 (Homo sapiens). Nature of the assay: Selectivity interaction (Reporter gene assay) EUB0001150a NR2C1. More on the design: recommended concentration 10 uM.
The target of assay [24] is Steroidogenic factor 1 (Homo sapiens) (UniProt Q13285). Description: Selectivity interaction (Reporter gene assay) EUB0001150a NR5A1. More on the design: recommended concentration 10 uM.
Assay [25] has as its target Nuclear receptor subfamily 2 group E member 1 (Homo sapiens) (UniProt Q9Y466). Description: Selectivity interaction (Reporter gene assay) EUB0001150a NR2E1. More on the design: recommended concentration 10 uM.
Assay [26] has as its target T2, Alpha trans-inducing protein (Human alphaherpesvirus 1). Nature of the assay: Selectivity interaction (Reporter gene assay) EUB0001150a UL48. More on the design: recommended concentration 10 uM.
Assay [27] addresses T1, Hepatocyte nuclear factor 4-alpha (Homo sapiens). Nature of the assay: Selectivity interaction (Reporter gene assay) EUB0001150a HNF4A. More on the design: recommended concentration 10 uM.
In assay [28] the target is T2, Alpha trans-inducing protein (Human alphaherpesvirus 1). Nature of the assay: Selectivity interaction (Reporter gene assay) EUB0001148a UL48. More on the design: recommended concentration 1 uM.
Assay [29] concerns the target Nuclear receptor subfamily 2 group E member 1 (Homo sapiens) (UniProt Q9Y466). Description: Selectivity interaction (Reporter gene assay) EUB0001148a NR2E1. Also noted: recommended concentration 1 uM.
Assay [30] has as its target T1, Hepatocyte nuclear factor 4-alpha (Homo sapiens). Description: Selectivity interaction (Reporter gene assay) EUB0001148a HNF4A. Also noted: recommended concentration 1 uM.
The target in assay [31] is Steroidogenic factor 1 (Homo sapiens) (UniProt Q13285). Nature of the assay: Selectivity interaction (Reporter gene assay) EUB0001148a NR5A1. Also noted: recommended concentration 1 uM.
For assay [32], the target named is Nuclear receptor subfamily 4immunitygroup A member 1 (Homo sapiens) (UniProt P22736). Nature of the assay: Selectivity interaction (Reporter gene assay) EUB0001148a NR4A1. Also noted: recommended concentration 1 uM.
For assay [33], the target named is T4, Retinoic acid receptor RXR-alpha (Homo sapiens). Description: Selectivity interaction (Reporter gene assay) EUB0001148a RXRA. Also noted: recommended concentration 1 uM.
For assay [34], the target named is T3, Nuclear receptor subfamily 2 group C member 1 (Homo sapiens). Description: Selectivity interaction (Reporter gene assay) EUB0001148a NR2C1. Also noted: recommended concentration 1 uM.

Consider 5 compounds from ChEMBL document CHEMBL5715260, “Selectivity Literature for EUbOPEN Chemogenomic Library” (2024).

Nuclear receptor subfamily 4immunitygroup A member 1 (Homo sapiens), sequence (P22736 whole entry): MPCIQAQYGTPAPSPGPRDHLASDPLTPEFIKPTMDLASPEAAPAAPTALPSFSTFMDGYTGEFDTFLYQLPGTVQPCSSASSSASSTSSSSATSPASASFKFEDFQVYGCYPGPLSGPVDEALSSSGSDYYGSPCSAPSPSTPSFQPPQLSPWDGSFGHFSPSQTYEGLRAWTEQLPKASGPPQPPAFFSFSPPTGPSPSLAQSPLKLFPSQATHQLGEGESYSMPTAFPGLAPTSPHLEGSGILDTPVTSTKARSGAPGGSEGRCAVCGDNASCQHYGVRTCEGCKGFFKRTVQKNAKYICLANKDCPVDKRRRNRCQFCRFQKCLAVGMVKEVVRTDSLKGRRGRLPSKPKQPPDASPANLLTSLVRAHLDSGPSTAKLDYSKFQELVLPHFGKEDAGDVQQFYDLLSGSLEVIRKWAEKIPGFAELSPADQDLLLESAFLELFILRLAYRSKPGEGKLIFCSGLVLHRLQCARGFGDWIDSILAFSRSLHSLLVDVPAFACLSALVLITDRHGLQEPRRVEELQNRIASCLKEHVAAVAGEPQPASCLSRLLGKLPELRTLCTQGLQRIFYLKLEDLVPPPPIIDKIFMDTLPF
T2 sequence (A0A5J6DW59 as listed by the source): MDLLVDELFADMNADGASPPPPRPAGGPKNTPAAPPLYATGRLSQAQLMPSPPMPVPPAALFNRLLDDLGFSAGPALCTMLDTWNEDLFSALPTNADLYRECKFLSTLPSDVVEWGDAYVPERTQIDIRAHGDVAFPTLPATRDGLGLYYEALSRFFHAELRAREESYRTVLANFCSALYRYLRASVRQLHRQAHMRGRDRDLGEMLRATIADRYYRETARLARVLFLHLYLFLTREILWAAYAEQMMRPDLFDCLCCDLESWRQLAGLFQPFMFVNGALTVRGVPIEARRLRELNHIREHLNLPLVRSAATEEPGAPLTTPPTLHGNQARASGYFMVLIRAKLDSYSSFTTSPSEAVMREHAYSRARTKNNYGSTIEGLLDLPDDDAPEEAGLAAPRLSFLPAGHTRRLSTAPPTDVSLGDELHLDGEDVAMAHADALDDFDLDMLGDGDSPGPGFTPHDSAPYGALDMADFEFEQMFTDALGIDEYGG

`CCCCCCCN(CCc1ccc(SC(C)(C)C(=O)O)cc1)C(=O)Nc1ccc(F)cc1F`: the Fold activation in assay [1] came to 1; in [2], 1; in assay [5] it was 1; in assay [6] it was 1.16. Further, in [3], the Remaining activity is 0.821. Further, in assay [4], the P-value came to 0.0039.
Take `COc1cc2c(cc1CC=C(C)C)C(=O)C[C@@H](c1ccc(O)cc1)O2`: the Remaining activity in assay [7] worked out at 0.758; in [8], 0.85; in assay [9] it was 0.853; in assay [11], 0.683; in assay [12], 0.857. The compound also yielded a P-value in assay [10] of 3.16e-05. Further, the Relative activation in [13] came out at 0.529%.
Regarding `CSc1ccc(C(=O)/C=C/c2cc(C)c(OC(C)(C)C(=O)O)c(C)c2)cc1`, the Remaining activity in assay [14] came to 0.871; in assay [15], 0.852. This compound returned a Relative activation in assay [16] of 0.86%. Further, the Fold activation was determined as 1.41 in assay [17], 1.25 in [18] and 1.11 in assay [20]. For the same compound, the P-value in [19] was 6.06e-07.
In turn, `COC(=O)c1sccc1S(=O)(=O)Nc1ccc(Nc2ccccc2)cc1OC` had a Relative activation in [21] of 0.476%. In addition, the Remaining activity is 0.906 in assay [22]; 0.679 in assay [23]; 0.63 in [24]; 0.608 in [25]; 0.51 in assay [27]. Moreover, the P-value in assay [26] is 0.0012.
With `Cc1cc(SCc2sc(-c3ccc(C(F)(F)F)cc3)nc2C)ccc1OCC(=O)O`, the P-value in assay [28] was 0.0001. The Fold activation in assay [29] was determined as 1.05; in [30] it was 1.1; in assay [31], 1.05; in assay [32], 1.02; in assay [34] it was 1.24. The Relative activation in assay [33] came out at 0.766%.
